Data as given in patent US20100279409A1, “METHOD FOR MODIFYING CELLUAR IMMUNE RESONSE BY MODULATING ACTIVIN ACTIVITY” (priority 2007, published 2010).

What was measured:
[1] = system: NK cells (target cells K562 or Jurkat cells); test: NK cell killing of calcein-labeled target cells; assay type: cell-based, human; conditions: 100 ng/ml, 3 days culture, K562 or Jurkat targets, 4 hours
Method: 1×10^6 purified NK cells were cultured in 24 well-plates, either with a high dose of IL-2 (100 U/ml), or a combination of 20 U/ml of IL-2 and IL-12. The culturing took place in the absence of either of activin-A or TGF-β or 100 ng/ml of one of them. The culture continued for 3 days.
After the 3 days of culture, the NK cells were combined with target cells K562 or Jurkat cells, at effector (NK cells): target (K562 or Jurkat cells) ratios of 5:1, 2:1, and 0.1:1. The target cells had been labeled with calcein previously. The total number of labeled target cells was 2×10^4, and the mixture was incubated for 4 hours. The efficiency of killing was determined by measuring calcein dye release via spectrometry.

[2] = system: Human NK cells; test: CFSE division assay of NK cells; assay type: cell-based; conditions: 5 days, activin-A 100 ng/ml
Method: In these experiments, 1×10^5 highly purified human NK cells were labeled with CFSE, and cultured for 5 days in medium supplemented with 20 U/ml IL-2 and 10 ng/ml IL-12, either with or without Poly I:C or LPS, either with or without 100 ng/ml of human recombinant activin-A. Cellular division was assessed by determining loss of CFSE intensity using known, flow cytometric methods.

[3] = system: CD8+ T cells; test: Purified CD8+ T cell activation and expansion with recombinant activin-A; assay type: cell-based, human; conditions: anti-CD3/CD28 beads, activin-A 0, 10, 100 ng/ml, 24 or 72 hours
Method: To test this, CD8^+ T cells were purified and labeled with carboxy fluorescein succinimidy/ester (“CFSE” hereafter). These cells were cultured in wells, at 1×10^5 cells/well, in standard medium supplemented with 20 U/ml of IL-2, either with or without anti-CD3/CD28 bead stimulation, in the presence of increasing doses of commercially available, recombinant activin-A (0, 10, and 100 ng/ml), for 24 or 72 hours. Cell division was assessed over time by flow cytometry and IFN-γ production via a standard ELISA.

[4] = system: NK cells; test: NK cell viability by caspase and PI staining; assay type: cell-based, human; conditions: 24 hours
Method: With respect to testing viability, 1×10^5 purified NK cells were cultured as described supra, in 96 well-plates. After 24 hours of culture, cells were stained with antibodies to polycaspase, caspase 3/7, caspase 8 and PI.

[5] = system: NK cells; test: qRT-PCR of NK cell gene expression; assay type: cell-based, human; conditions: 16 hours
Method: In a second set of experiments, 5×10^5 purified NK cells were cultured as described herein, in 24 well-plates and were then collected, and lysed after 16 hours of culture.
The lysates were treated to extract the mRNA, which was then subjected to qRT-PCR to determine expression of each of T-bet (a transcription factor), IFN-γ, perforin, granzyme A, and granzyme B.

[6] = system: NK cells; test: Flow cytometry of CD25 and CD56 on NK cells; assay type: cell-based, human
Method: As above, 1×10^5 purified NK cells were cultured in 96 well-plates in media that had been supplemented with IL-2 and IL-12, either with or without the addition of TLR ligands, in the presence of activin-A (100 ng/ml).
After 24 hours, […] were collected, and stained with anti-CD25 antibodies, with expression being determined by flow cytometry.

[7] = system: NK cells; test: Multiplex cytokine and chemokine array of NK cell supernatants; assay type: cell-based, human; conditions: activated NK cells
Method: The analysis reported supra was extended to an analysis of the supernatants produced during the various cell culture experiments. A multiplex array system for chemokines and cytokines were used, as was a standard ELISA for measuring IFN-γ. Bead arrays were used to quantify each of IFN-γ, IL-1 IL-6, IL-8, IL-10, TNF-α, GM-CSF, IP-10, MCP-1, MIP-1α, and 1β. Levels of production were measured using standard methodologies.

[8] = system: Human NK cells; test: Western blot for Smad 2/3 in NK cells; assay type: cell-based; conditions: ex vivo purified NK cells, 50 ng/ml activin-A, 4 hours
Method: Human NK cells were highly purified, following standard methods; and were either lysed immediately or cultured for 20 hours in medium that had been supplemented with 20 U/ml IL-2, either with or without 10 ng/ml of IL-12, or with or without the toll like receptor 3 ligand Poly I:C, 5×10^5, lysed immediately, and then assayed for ALK-4 (an activin type I receptor), and RITA (an activin type II receptor), via qRT-PCR. In parallel, 1×10^5 highly purified NK cells were cultured in medium supplemented with 20 U/ml IL-2, with or without 50 ng/ml of recombinant human activin-A. Cells were harvested after 4 hours, and Western blotting was carried out for Smad 2/3 and β-actin.

[9] = system: Human NK cells; test: Intracellular cytokine staining of IFN-γ in NK cells; assay type: cell-based; conditions: 16 hours, BFA 1 μg/ml
Method: In these experiments 1×10^5 highly purified human NK cells were cultured as above, but were cultured with Poly I:C (10 μg/ml), or LPS (100 ng/ml), with or without 10, 50, or 100 ng/ml of recombinant human activin-A. In some cases, the known compound “SB431542,” which blocks activin-A binding to receptors was added. IFN-γ was then measured via ELISA, or by intracellular cytokine staining after 16 hours of culture, via addition of 1 μg/ml BFA, to prevent cytokine release.
In additional follow up experiments, the NK cells were stimulated with IL-2 or the combination of IL-2 and IL-12, plus poly I:C or LPS, for 16 hours, in the presence of 1 μg/ml of BFA, before a standard ICS assay was carried out via flow cytometry.

[10] = system: C57/B6 mice; assay type: in vivo, mouse; conditions: 100 ng activin-A subcutaneously, live influenza virus intraperitoneally, day 7

## activin-A
[1]
  killing ability of NK cells: had no impact whatsoever
[2]; IL-2, IL-12, LPS
  division and proliferation of NK cells: very strongly suppressed
[2]; IL-2, IL-12, Poly I:C
  division and proliferation of NK cells: very strongly suppressed
[3]
  CD8+ T cell ability to generate IFN-γ: did not regulate
  CD8+ T cell division: did not regulate
[4]
  apoptosis (polycaspase, caspase 3/7, caspase 8, PI staining): no indication of apoptosis
[5]
  IFN-γ mRNA expression: inhibited expression of T-bet and IFN-γ significantly
  T-bet mRNA expression: inhibited expression of T-bet and IFN-γ significantly
  perforin, granzyme A and granzyme B mRNA expression: had no effect
[6]; Example 16
  downregulation of CD56: suppressed
  upregulation of CD25: suppressed
[6]; IL-2 and IL-12 with or without TLR ligands, activin-A 100 ng/ml, 24 hours
  CD25 expression: significantly suppressed
[7]
  GM-CSF production: suppressed
  IFN-γ production (bead array): suppressive effect
  IL-1β production: suppressed
  IL-6 production: suppressed
  IL-8 production: suppressing
  IL-10 production: increased the low amounts of IL-10 that had been produced, significantly
  IP-10 production: suppressing
  MIP-1α production: suppressing
  MIP-1β production: suppressing
  TNF-α production: suppressed
[8]
  intracellular Smad 2/3 levels: enhanced intracellular Smad 2/3 levels
[9]
  number of IFN-γ producing cells: not due to a decrease in the number of IFN-γ producing cells
[9]; listed as Activin-A
  number of IFN-γ producing cells: did not effect these populations
[10]
  peptide specific CD8+ IFN-γ+ T cell response: suppressed
